# From patent US20100331577A1, “Method for radio-labeling serotonin transporter ligand, 123I-IADM” (ATOMIC ENERGY COUNCIL-INSTITUTE OF NUCLEAR ENERGY RESEARCH, priority 2008, published 2010)
# Legend:
# [1] = cited from earlier work
# serotonin transporter [2] = biological target: T1, serotonin transporter (Homo sapiens, UniProt P31645); conditions: cited from earlier work; for specific binding affinity: imaging of the serotonin transporter; for clarity of the image obtained: compared with ^125I-IDAM
# SERT = SERT (Homo sapiens, UniProt P31645); conditions: in vitro specific binding assay; cited from earlier work
# [3] = radiochemistry purity over time measured by HPLC (stability); assay type: physicochemical; conditions: main peak 63
# Procedure: Referring to FIG. 4, an HPLC is used to measure the radiochemistry purity of the ^123I-ADAM 13. Reverse-phase high-performance liquid chromatography equipped with a radiodetector is used for the qualitative and quantitative assessment of the ^123I-ADAM 13. The retention time of the ^123I-ADAM 13 is 18 minutes.
# Referring to FIG. 6, the radiochemistry purity of the ^123I-ADAM after 0 hour is shown in a chart. At 61, the radiochemistry purity is 0.67%. At 62, the radiochemistry purity is 1.58%. At 63, the radiochemistry purity is 97.78%.
# Referring to FIG. 7, the radiochemistry purity of the ^123I-ADAM after 48 hours is shown in a chart. At 64, the radiochemistry purity is 4.41%. At 65, the radiochemistry purity is 1.55%. At 66 the radiochemistry purity is 94.04%. After 48 hours, the radiochemistry purity is still higher than 90%.
# serotonin transporter [4] = biological target: T2, serotonin transporter (Rattus norvegicus, UniProt P31652); assay: microSPECT and microCT imaging of the brain of a SD rat; assay type: in vivo
# T2 construct: from tissue; host or cells: brain of a SD rat (in vivo imaging)
# Source text: Referring to FIG. 8, a microCT image 71 and a microSPECT image 72 of the brain of a SD rat are shown. A fused image 73 of the microCT image and the microSPECT image 72 is also shown. […] The concentration of the serotonin transporter in the midbrain is higher than in the cerebellum 73. The ^123I-ADAM 13 can effectively be used to detect the serotonin transporter.
# serotonin transporter [5] = assay: SPECT and MRI imaging of the brain of an ape; assay type: in vivo
# Source text: Referring to FIG. 9, the ^123I-ADAM is used to provide a SPECT image and a MRI image 82 of an ape. […] The concentration of the serotonin transporter in the hypothalamus is higher than in the cerebellum 83. The ^123I-ADAM 13 can effectively be used to detect the serotonin transporter.
# serotonin transporter [6] = biological target: T1, serotonin transporter; conditions: cited from earlier work
# T1 sequence (P31645 whole entry): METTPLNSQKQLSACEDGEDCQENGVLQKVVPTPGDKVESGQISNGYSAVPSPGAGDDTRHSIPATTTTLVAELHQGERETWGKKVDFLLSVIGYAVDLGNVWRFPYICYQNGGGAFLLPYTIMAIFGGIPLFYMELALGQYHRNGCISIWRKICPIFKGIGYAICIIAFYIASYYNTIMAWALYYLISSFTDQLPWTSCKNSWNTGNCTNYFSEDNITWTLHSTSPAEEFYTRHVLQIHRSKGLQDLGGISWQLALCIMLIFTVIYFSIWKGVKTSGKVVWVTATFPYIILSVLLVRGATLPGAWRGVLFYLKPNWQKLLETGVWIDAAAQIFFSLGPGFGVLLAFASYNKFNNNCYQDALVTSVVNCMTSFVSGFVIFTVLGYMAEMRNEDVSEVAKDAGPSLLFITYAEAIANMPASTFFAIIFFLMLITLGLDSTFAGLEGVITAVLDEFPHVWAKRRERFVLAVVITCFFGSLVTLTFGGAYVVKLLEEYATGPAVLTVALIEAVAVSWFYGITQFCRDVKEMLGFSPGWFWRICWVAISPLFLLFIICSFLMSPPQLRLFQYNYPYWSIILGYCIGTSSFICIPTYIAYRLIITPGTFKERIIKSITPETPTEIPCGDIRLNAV
# Sequence of SERT (P31645 whole entry): as above
# T2 sequence (P31652 whole entry): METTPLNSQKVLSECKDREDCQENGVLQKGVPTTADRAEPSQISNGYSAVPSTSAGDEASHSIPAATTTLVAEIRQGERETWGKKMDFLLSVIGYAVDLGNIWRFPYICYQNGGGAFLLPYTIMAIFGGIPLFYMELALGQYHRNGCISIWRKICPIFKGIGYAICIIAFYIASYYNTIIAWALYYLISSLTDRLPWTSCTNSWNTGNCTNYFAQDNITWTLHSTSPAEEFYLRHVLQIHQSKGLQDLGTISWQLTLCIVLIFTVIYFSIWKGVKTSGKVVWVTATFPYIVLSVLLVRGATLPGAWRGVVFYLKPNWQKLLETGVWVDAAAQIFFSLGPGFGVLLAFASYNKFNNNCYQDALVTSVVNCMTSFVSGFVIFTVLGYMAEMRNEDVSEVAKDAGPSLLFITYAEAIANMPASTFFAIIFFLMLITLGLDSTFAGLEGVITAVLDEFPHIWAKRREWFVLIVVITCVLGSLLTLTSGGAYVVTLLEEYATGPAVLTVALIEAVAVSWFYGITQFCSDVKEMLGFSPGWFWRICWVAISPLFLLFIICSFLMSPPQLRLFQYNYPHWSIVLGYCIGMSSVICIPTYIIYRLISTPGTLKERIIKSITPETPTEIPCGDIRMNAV
compound,measurement,setting,value
CN(C)Cc1ccccc1Sc1ccc([125I])cc1CO [^125I-IDAM],absorption by a brain,[1]; two minutes after injection,2.44%
same,specific binding affinity,serotonin transporter [2],1.75
CN(C)Cc1ccccc1Oc1ccc([125I])cc1CO [^125I-ODAM],clarity of the image obtained,serotonin transporter [2],less clear than with the use of ^125I-IDAM
same,specific binding affinity with SERT,SERT,good
CN(C)Cc1ccccc1Sc1ccc([123I])cc1N [^123I-ADAM],radiochemistry purity after 0 hour,[3],97.78%
same,affinity with the midbrain versus cerebellum,serotonin transporter [4],better than with the cerebellum
same,affinity with the hypothalamus of the midbrain versus cerebellum,serotonin transporter [5],more affinitive than with the cerebellum
CN(C)Cc1ccccc1Sc1ccc([125I])cc1N [^125I-ADAM],absorption by the brain,[1]; compared with ^125I-IDAM,less than ^125I-IDAM
same,clarity of the image obtained,serotonin transporter [2],clearer
same,specific binding affinity,serotonin transporter [2],much higher than ^125I-IDAM
same,affinity with the serotonin transporter,serotonin transporter [6],much better than that of ^125I-IDAM
